In ChEMBL document CHEMBL1671707, “Mycobacterium tuberculosis dihydrofolate reductase is not a target relevant to the antitubercular activity of isoniazid” (Antimicrob Agents Chemother, 2010):
Active and inactive are the calls of the source.

Key:
[1] = tested on: Mycolicibacterium smegmatis; test: Antimicrobial activity against Mycobacterium smegmatis MC2 5089 harboring pYUB1062 plasmid overexpressing Mycobacterium tuberculosis Rv1484 InhA gene by broth microdilution method; format: functional
[2] = tested on: Mycolicibacterium smegmatis; test: Antimicrobial activity against Mycobacterium smegmatis MC2 4517 harboring pYUB1062 plasmid overexpressing Mycobacterium tuberculosis Rv2766 FabG5 gene by broth microdilution method; format: functional
[3] = tested on: Mycolicibacterium smegmatis; test: Antimicrobial activity against Mycobacterium smegmatis MC2 4517 harboring pYUB1062 plasmid overexpressing Mycobacterium tuberculosis Rv2671 RibD gene by broth microdilution method; format: functional
[4] = tested on: Mycolicibacterium smegmatis; test: Antimicrobial activity against Mycobacterium smegmatis MC2 4517 harboring pYUB1062 plasmid overexpressing Mycobacterium tuberculosis Rv1059 unknown gene by broth microdilution method; format: functional
[5] = tested on: Mycolicibacterium smegmatis; test: Antimicrobial activity against Mycobacterium smegmatis MC2 4517 harboring pYUB1062 plasmid overexpressing Mycobacterium tuberculosis Rv1187 RocA gene by broth microdilution method; format: functional
[6] = tested on: Mycolicibacterium smegmatis; test: Antimicrobial activity against Mycobacterium smegmatis MC2 4517 harboring pYUB1062 plasmid overexpressing Mycobacterium tuberculosis Rv2971 probable oxidoreductase gene by broth microdilution method; format: functional, organism-based
[7] = tested on: Mycolicibacterium smegmatis; test: Antimicrobial activity against Mycobacterium smegmatis MC2 4517 harboring pYUB1062 plasmid overexpressing Mycobacterium tuberculosis Rv1996 universal stress protein gene by broth microdilution method; format: functional
[8] = tested on: Mycolicibacterium smegmatis; test: Antimicrobial activity against Mycobacterium smegmatis MC2 4517 harboring pYUB1062 plasmid overexpressing Mycobacterium tuberculosis Rv3248c SahH gene by broth microdilution method; format: functional
[9] = tested on: Mycolicibacterium smegmatis; test: Antimicrobial activity against Mycobacterium smegmatis MC2 4517 harboring pYUB1062 plasmid overexpressing Mycobacterium tuberculosis Rv0468 FadB2 gene by broth microdilution method; format: functional
[10] = tested on: Mycolicibacterium smegmatis; test: Antimicrobial activity against Mycobacterium smegmatis MC2 4517 harboring pYUB1062 plasmid overexpressing Mycobacterium tuberculosis Rv2691 CeoB/TrKA gene by broth microdilution method; format: functional
[11] = tested on: Mycolicibacterium smegmatis; test: Antimicrobial activity against Mycobacterium smegmatis MC2 4517 harboring pYUB1062 plasmid overexpressing Mycobacterium tuberculosis Rv0091 Mtn/Sah gene by broth microdilution method; format: functional, organism-based
[12] = tested on: Mycolicibacterium smegmatis; test: Antimicrobial activity against Mycobacterium smegmatis MC2 4517 harboring pYUB1062 plasmid overexpressing Mycobacterium tuberculosis Rv3777 probable oxidoreductase gene by broth microdilution method; format: functional
[13] = tested on: Mycolicibacterium smegmatis; test: Antimicrobial activity against Mycobacterium smegmatis MC2 5097 harboring pYUB1062 plasmid overexpressing Mycobacterium tuberculosis Rv2763c DfrA gene by broth microdilution method; format: functional
[14] = tested on: Mycolicibacterium smegmatis; test: Antimicrobial activity against Mycobacterium smegmatis MC2 4517 harboring pYUB1062 plasmid overexpressing Mycobacterium tuberculosis Rv0753c MmsA gene by broth microdilution method; format: functional
[15] = tested on: Mycolicibacterium smegmatis; test: Antimicrobial activity against Mycobacterium smegmatis MC2 4517 harboring pYUB1062 plasmid overexpressing Mycobacterium tuberculosis Rv0926c unknown gene by broth microdilution method; format: functional
[16] = tested on: Mycolicibacterium smegmatis; test: Antimicrobial activity against Mycobacterium smegmatis MC2 4517 harboring pYUB1062 plasmid overexpressing Mycobacterium tuberculosis Rv2623 universal stress protein gene by broth microdilution method; format: functional
[17] = tested on: Mycolicibacterium smegmatis; test: Antimicrobial activity against Mycobacterium smegmatis MC2 4517 harboring pYUB1062 plasmid overexpressing Mycobacterium tuberculosis Rv2858c Aldc gene by broth microdilution method; format: functional
[18] = tested on: Mycolicibacterium smegmatis; test: Antimicrobial activity against Mycobacterium smegmatis MC2 4517 harboring pYUB1062 plasmid overexpressing Mycobacterium tuberculosis Rv0155 PntAA gene by broth microdilution method; format: functional
[19] = tested on: Mycobacterium tuberculosis; test: Antimicrobial activity against Mycobacterium tuberculosis H37Rv harboring pMV261::dfrA plasmid by MTT assay; format: functional, organism-based
[20] = tested on: Mycobacterium tuberculosis; test: Ratio of MIC for Mycobacterium tuberculosis H37RV harboring pMV261::InhA plasmid to MIC for wild-type Mycobacterium tuberculosis H37Rv; format: functional
[21] = tested on: Mycobacterium tuberculosis; test: Antimicrobial activity against Mycobacterium tuberculosis H37Rv harboring pMV261::InhA plasmid by MTT assay; format: functional, organism-based

CCc1cc(C(N)=S)ccn1 [ETHIONAMIDE]
150 µg/mL: MIC [1]
inactive: MIC [6] | MIC [11]
9.4 µg/mL: MIC [2] | MIC [3] | MIC [4] | MIC [5] | MIC [7] | MIC [8] | MIC [9] | MIC [10] | MIC [12] | MIC [13] | MIC [14] | MIC [15] | MIC [16] | MIC [17] | MIC [18]

NNC(=O)c1ccncc1 [ISONIAZID]
active: Activity [19]
4.7 µg/mL: MIC [2] | MIC [3] | MIC [4] | MIC [5] | MIC [7] | MIC [8] | MIC [9] | MIC [10] | MIC [12] | MIC [13] | MIC [14] | MIC [15] | MIC [16] | MIC [17] | MIC [18]
300 µg/mL: MIC [1]
20: Ratio [20]
inactive: MIC [6] | Activity [21] | MIC [11]
